Results: patent US8344018B2, “Oxindolyl inhibitor compounds” (Gilead Sciences, Inc., priority 2008, dated 2013)
Where “and” joins values, the source holds several entries; their conditions need not be identical. Equal entries are not always repeated.

Experiments:
HDAC 1 = HDAC 1 (Homo sapiens, UniProt Q13547); assay: HDAC 1 fluorescence assay with about 3 hours preincubation; type: biochemical; conditions: 3-hour preincubation of enzyme and compound; two numbers = two different lots of the compound; read-out: HDAC 1 inhibitory activity (IC50 [μM]) (3-hour preincubation)
Sequence of HDAC 1 (Q13547 whole entry, species assumed): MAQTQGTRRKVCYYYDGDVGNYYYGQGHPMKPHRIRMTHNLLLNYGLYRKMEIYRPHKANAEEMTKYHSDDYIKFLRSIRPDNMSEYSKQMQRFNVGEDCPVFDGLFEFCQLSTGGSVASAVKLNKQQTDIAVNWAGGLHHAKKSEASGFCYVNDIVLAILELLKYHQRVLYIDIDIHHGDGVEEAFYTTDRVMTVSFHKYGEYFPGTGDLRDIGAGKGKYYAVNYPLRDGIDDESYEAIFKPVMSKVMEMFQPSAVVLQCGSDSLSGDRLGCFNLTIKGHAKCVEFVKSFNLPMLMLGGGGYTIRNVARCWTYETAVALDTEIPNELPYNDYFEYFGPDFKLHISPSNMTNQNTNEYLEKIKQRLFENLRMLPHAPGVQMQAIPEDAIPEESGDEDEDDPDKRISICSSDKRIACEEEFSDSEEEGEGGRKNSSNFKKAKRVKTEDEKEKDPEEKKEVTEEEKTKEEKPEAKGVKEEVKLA
Procedure: The second assay is similar to the first assay described above, except that preincubation is carried out for about 3 hours after the enzyme is introduced. The test compound was suspended in, and titrated in DMSO. It was then spotted into a 384-well test plate. The enzyme, HDAC 1, was diluted in the same assay buffer as used in the previous assay and added to the pre-spotted compound. The enzyme/compound mix was incubated at room temperature for about 3 hours. The peptide substrate containing a fluorophore/quencher pair was diluted in the assay buffer and added to the compound/enzyme mix initiating the reaction. The reaction incubated at room temperature for 45 minutes. A concentrated developer solution was diluted in the assay buffer, and added to the reaction. The reaction was incubated at room temperature for about 15 minutes and relative fluorescence was read on an instrument reader.
Where two numbers are given, the values are reported for measurements on two different lots of the compound.

CDK2 = CDK2 (Homo sapiens, UniProt P24941); assay: CDK2 inhibition; type: biochemical; conditions: two numbers = two different lots of the compound

IC50 (HDAC 1) | IC50 (CDK2) | Compound
0.17 µM | 0.07 µM | COC(=O)c1ccc2c(c1)/C(=C/Nc1ccc(C(=O)Nc3ccccc3N)cc1)C(=O)N2 [Example 2, 3-{[4-(2-Amino-phenylcarbamoyl)-phenylamino]-methylene}-2-oxo-2,3-dihydro-1H-indole-5-carboxylic acid methyl ester]
0.063 µM | 0.25 µM | CN(C)CCNC(=O)c1ccc2c(c1)/C(=C/Nc1ccc(C(=O)Nc3ccccc3N)cc1)C(=O)N2 [Example 9, 3-{[4-(2-Amino-phenylcarbamoyl)-phenylamino]-methylene}-2-oxo-2,3-dihydro-1H-indole-5-carboxylic acid (2-dimethylamino-ethyl)-amide]
0.036 µM | 1.01 µM | C/C(Nc1ccc(C(=O)Nc2ccccc2N)cc1)=C1/C(=O)Nc2ccc(C(C)O)cc21 (centres unmarked) [Example 13, N-(2-Amino-phenyl)-4-{1-[5-(1-hydroxy-ethyl)-2-oxo-1,2-dihydro-indol-3-ylidene]-ethylamino}-benzamide]
0.064 µM and 0.03 µM | 0.01 µM | CC(=O)c1ccc2c(c1)/C(=C(\C)Nc1ccc(C(=O)Nc3ccccc3N)cc1)C(=O)N2 [Example 4, 4-[1-(5-Acetyl-2-oxo-1,2-dihydro-indol-3-ylidene)-ethylamino]-N-(2-amino-phenyl)-benzamide]
0.033 µM | 0.043 µM | COC(=O)c1ccc2c(c1)/C(=C(\C)Nc1ccc(C(=O)Nc3ccccc3N)cc1)C(=O)N2 [Example 1, 3-{1-[4-(2-Amino-phenylcarbamoyl)-phenylamino]-ethylidene}-2-oxo-2,3-dihydro-1H-indole-5-carboxylic acid methyl ester]
0.186 µM | 0.52 µM | C/C(Nc1ccc(C(=O)Nc2ccccc2N)cc1)=C1/C(=O)Nc2ccc(S(=O)(=O)N3CCOCC3)cc21 [Example 6, N-(2-Amino-phenyl)-4-{1-[5-(morpholine-4-sulfonyl)-2-oxo-1,2-dihydro-indol-3-ylidene]-ethylamino}-benzamide]
0.071 µM | 0.34 µM | C/C(Nc1ccc(C(=O)Nc2ccccc2N)cc1)=C1/C(=O)Nc2ccc(C(=O)N(C)C)cc21 [Example 12, 3-{1-[4-(2-Amino-phenylcarbamoyl)-phenylamino]-ethylidene}-2-oxo-2,3-dihydro-1H-indole-5-carboxylic acid dimethylamide]
0.181 µM | 0.44 µM | C/C(Nc1ccc(C(=O)Nc2ccccc2N)cc1)=C1/C(=O)Nc2ccc(C(=O)O)cc21 [Example 10, 3-{1-[4-(2-Amino-phenylcarbamoyl)-phenylamino]-ethylidene}-2-oxo-2,3-dihydro-1H-indole-5-carboxylic acid]
0.029 µM and 0.021 µM | 0.01 µM and 0.02 µM | C/C(Nc1ccc(C(=O)Nc2ccccc2N)cc1)=C1/C(=O)Nc2ccc(C#N)cc21 [Example 3, N-(2-Amino-phenyl)-4-[1-(5-cyano-2-oxo-1,2-dihydro-indol-3-ylidene)-ethylamino]-benzamide]
0.635 µM | > 40 µM | COC(=O)c1ccc2c(c1)/C(=C(\C)Nc1ccc(C(=O)NO)cc1)C(=O)N2 [Example 11, 3-[1-(4-Hydroxycarbamoyl-phenylamino)-ethylidene]-2-oxo-2,3-dihydro-1H-indole-5-carboxylic acid methyl ester]
0.232 µM | > 40 µM | C/C(Nc1ccc(C(=O)Nc2ccccc2N)cc1)=C1/C(=O)Nc2ccc(-c3csc(C)n3)cc21 [Example 7, N-(2-Amino-phenyl)-4-{1-[5-(2-methyl-thiazol-4-yl)-2-oxo-1,2-dihydro-indol-3-ylidene]-ethylamino}-benzamide]
0.335 µM | 0.02 µM | C/C(Nc1ccc(C(=O)Nc2ccccc2N)cc1)=C1/C(=O)Nc2ccc(C(=O)C(C)C)cc21 [Example 5, N-(2-Amino-phenyl)-4-[1-(5-isobutyryl-2-oxo-1,2-dihydro-indol-3-ylidene)-ethylamino]-benzamide]
0.1 µM | 0.13 µM | CC(Nc1ccc(C(=O)Nc2ccccc2N)cc1)=C1C(=O)Nc2ccc(S(C)(=O)=O)cc21 [Example 8, N-(2-Amino-phenyl)-4-[1-(5-methanesulfonyl-2-oxo-1,2-dihydro-indol-3-ylidene)-ethylamino]-benzamide]
